Measured values published in patent US20260193642A1, “DIRECT MEASUREMENT OF ENGINEERED CANCER MUTATIONS AND THEIR TRANSCRIPTIONAL PHENOTYPES IN SINGLE CELLS” (The Board of Trustees of the Leland Stanford Junior …, priority 2022, published 2026).

Columns and labels:
p53 pathway = conditions: U2OS cells (wild-type TP53); 10 μM nutlin-3a; 5 μM, 10 μM and 20 μM tested
From the text: Cell culture conditions: HEK293T (ATCC CRL-11268) and MMNK-1 (JCRB1554) cells were maintained in Dulbecco's modified Eagle's medium (DMEM) with 10% fetal bovine serum (FBS). HCT116 (ATCC CCL-247) cells and U2OS (ATCC HTB-96) were maintained in McCoy's 5A modified medium supplemented with 10% FBS. […] K562 (ATCC CCL-243) cells were maintained in RPMI 1640 with 10% FBS. Cells were authenticated by STR profiling. All cell lines were confirmed by PCR to be free of mycoplasma contamination.
HCT116 and U2OS human cell lines were used for this study. Both cell lines have wild-type TP53 which was independently confirmed.

HCT116 cells = experiment: Cell cycle analysis, EdU and propidium iodide flow cytometry assay; type: cell-based, human; conditions: 24 hrs nutlin-3a treatment
Procedure: Cell cycle analysis: Click-iT™ Plus EdU Alexa Fluor™ 488 Flow Cytometry Assay Kit (Life technologies) was used according to manufacturer's protocol. Briefly, cells were plated a day prior to nutlin-3a or vehicle treatment. After 24 hrs of chemical treatment, cells in S-phase were labeled with […] EdU solution for 2 hrs. FxCycle™ PI/RNase Staining Solution (Life technologies) was used for PI staining. After the staining, cells were analyzed by NovoCyte Quanteon Flow Cytometer Systems (Agilent, Santa Clara, CA, USA).
The PI assay detects total DNA amounts for G1 and G2-phase comparison. The EdU assay labels newly synthesized DNA to detect S-phase.

Which results are given for `COc1ccc(C2=N[C@@H](c3ccc(Cl)cc3)[C@@H](c3ccc(Cl)cc3)N2C(=O)N2CCNC(=O)C2)c(OC(C)C)c1` [nutlin-3a]?
p53 pathway activation (p53 pathway): successful p53 pathway activation; cell cycle arrest (HCT116 cells; HCT116 clonal cells with TP53 I195T mutation, FIG. 4C, P=0.95): did not undergo arrest; cell cycle arrest (HCT116 cells; HCT116 clonal cells with TP53 Y220C mutation, FIG. 4C, P=0.95): did not undergo arrest; cell cycle arrest (HCT116 cells; wild-type HCT116 cells, FIG. 4c, P<2.2e-16): arrested
